Source: patent publication US20100120013A1, “PROCEDURE FOR LONG TERM CORNEAL CULTURE” (MB RESEARCH LABORATORIES, INC., priority 2008, published 2010)

Tested on: excised cultured porcine corneas
Settings: pig, 5 min, 100 %

time in culture at which dosed corneas no longer retain NaFL stain (recovery): 3 to 10 days
SMILES: CCO [ethanol]
